From publication PMC8037097, “Highly Oxygenated Triterpenoids and Diterpenoids from Fructus Rubi (Rubus chingii Hu) and Their NF-kappa B Inhibitory Effects” (Molecules, 2021)
≈ marks a conversion by molar mass, not a printed value. Where two headings read alike, the source gives them in different places.

Legend:
NF-κB = NF-κB inhibitory assay (luciferase, HEK293 with stable NF-κB expression, TNF-α stimulation); assay type: cell-based; conditions: read-out: NF-κB (IC50)
Protocol: HEK293 with a stable NF-κB expression cell line was used for the luciferase assay. Cells were maintained at 37 °C and 5% CO2 atmosphere in Dulbecco’s modified Eagle’s medium with 100 U/mL benzylpenicillin 100 μg/mL streptomycin, 2 mM glutamine, and 10% fetal bovine serum. Before seeding in 96-well plates, the cells were stained for 1 h in serum-free medium supplemented with […] cell Tracker Green CMFDA. Cells were seeded into 96-well plates and incubated for 24 h, and then treated with different concentrations of the tested compounds followed by stimulation with 20 ng/mL TNF-α. The luciferase substrate was added to each well after incubation for 6 h, and then the released luciferin signal was detected using an EnVision microplate reader. The IC50 value was derived from a nonlinear regression model (curve-fit), based on a sigmoidal dose response curve (variable slope) and computed using Graphpad Prism 5 (Graphpad Software). Bortezomib (PS-341, CAS No. 179324-69-7) was used as the positive control.

[1] = tested on: C. albicans SC5314 sensitive strain; assay: Anti-fungal susceptibility assay (CLSI M27-A3), sensitive strain; assay type: cell-based; conditions: Candida albicans, 48 h incubation at 37 °C
Protocol: An anti-fungal assay was carried out on the basis of the Clinical and Laboratory Standards Institute (CLSI) method M27-A3 [45, 48]. A single colony of Candida albicans (the resistant strain 901 or the sensitive strain 5314) was chosen from Sabouraud’s agar and then inoculated in yeast extract peptone dextrose medium (YEPD) for activation by shake bottled cultivation (200 rpm, 37 °C). After 16 h, fungi in the late-exponential growth phase were obtained, followed by being adjusted to 1 × 10^3–5 × 10^3 CFU/mL with RPMI 1640 medium. The density of the fungi in 96-well plates was 10^3 CFU/mL, while the final concentrations of the test compounds ranged from 64 to 0.125 μg/mL in triplicate. The assay volume in each well was 100 μL with MIC80 determined following 48 h incubation at 37 °C. Optical density was measured with a microplate reader (Multiskan MK3; Labsystems, Nantaa, Finland) at 630 nm. MIC80 was determined as the lowest concentration of the drugs that inhibited growth by 80% compared with the […]. Fluconazole was used as the positive control.

Compound	IC50 (NF-κB; Homo sapiens, HEK293, 6 h)	MIC80 [1]	further results
CC(C)(O)/C=C/C(=O)[C@](C)(O)[C@H]1[C@H](O)C[C@@]2(C)[C@@H]3CC=C4[C@@H](CC(=O)[C@@H](O)C4(C)C)[C@]3(C)C(=O)C[C@]12C [Compound 17, 3α,16α,20(R),25-tetrahydroxy-cucurbita-5,23-dien-2,11,22-trione]	1600 ± 320 nM	–	–
cucurbitacin B [Compound 15]	–	–	IC50 (NF-κB; HEK293 NF-κB luciferase, 20 ng/mL TNF-α, 6 h, mean SEM of triplicated experiments): 80 ± 30 nM
CC(C)(O)/C=C/C(=O)[C@](C)(O)[C@H]1[C@H](O)C[C@@]2(C)[C@@H]3CC=C4[C@@H](C[C@H](O)C(=O)C4(C)C)[C@]3(C)C(=O)C[C@]12C [Compound 16, cucurbitacin D]	610 ± 120 nM	–	–
CC(C)C[C@H](NC(=O)[C@H](Cc1ccccc1)NC(=O)c1cnccn1)B(O)O [PS-341, Bortezomib, reference compound]	–	–	IC50 (NF-κB; Homo sapiens, HEK293 NF-κB luciferase, 20 ng/mL TNF-α, 6 h, mean SEM of triplicated experiments): 440 ± 80 nM
CC1(C)CC[C@]2(C(=O)O)CC[C@]3(C)C(=CC[C@@H]4[C@@]5(C)C[C@@H](O)[C@@H](O)[C@@](C)(CO)[C@@H]5CC[C@]43C)[C@@H]2C1 [Compound 12]	–	32 µg/mL (≈ 65.5 µM)	–
OC(Cn1cncn1)(Cn1cncn1)c1ccc(F)cc1F [Fluconazole, reference compound]	–	0.125 µg/mL (≈ 0.408 µM)	–
